# Like-named read-outs stand apart in the source and are kept apart here.
# What was measured:
# [1] = tested on: breast cancer resistance protein; design: method as in PMID 38967715, PMID 39412085; conditions: at clinically relevant concentrations; cited from earlier work
# [2] = tested on: aldehyde oxidase and cytochrome P450 (CYP) 2C8, CYP3A, CYP2C9, CYP2C19; design: method as in PMID 38967715, PMID 39412085; conditions: in vitro, minor contributions from CYP3A; cited from earlier work
# [3] = tested on: CYP2C8, CYP2C9, CYP2C19, CYP3A, CYP1A2, CYP2B6; design: method as in PMID 38967715, PMID 39412085; conditions: at clinically relevant concentrations, cited from earlier work
# [4] = Relative bioavailability and food-effect pharmacokinetics (Part 2, 3-period crossover); type: in vivo, human
# Protocol: In Part 2 of the study, 12 participants were randomized to 1 of 3 sequences (T[fast]S[fast]T[fed], S[fast]T[fed]T[fast], and T[fed]T[fast]S[fast]) (Figure S1B). In each treatment period, tovorafenib was administered on Day 1 as a tablet under fasted (T[fast]), as PfOS under fasted (S[fast]), or as a tablet after a high‐fat meal (T[fed]). Tovorafenib was administered in the morning after an overnight fast of 10 hours or more. For treatment groups T[fast] and S[fast], tovorafenib was given under fasted conditions (ie, no breakfast), while for the T[fed] group, it was administered 30 minutes after the start of a high‐fat meal. A total of 240 mL of water was administered with each tovorafenib tablet. For the PfOS, immediately after administration, the dosing vessel was rinsed with water, and participants were required to consume the rinse solution and additional water up to a total volume of 240 mL (including the dosing volume and volume used to rinse the dosing vessel). If needed, additional water in 50‐mL aliquots was provided and recorded but was not classed as a protocol deviation. Participants were required to fast for 4 hours or more after single‐dose administration of the tovorafenib tablet. The composition of the high‐fat meal consisted of 800‐1000 calories, of which approximately 54% of calories were from fat. To be eligible for dosing, participants were required to consume at least 90% of the meal provided. Intake of fluids was prohibited 1 hour before dosing until 1 hour after dosing, except for fluid consumed with breakfast before dosing and water for tovorafenib tablet intake. Blood samples were collected at regular intervals (see Blood Collection and Processing for PK Analysis in the Pharmacokinetic Assessments section for more details) for PK analysis from before dosing to 120 hours after dosing. […]
# Plasma concentrations of tovorafenib were determined by a validated liquid chromatography with tandem mass spectrometry–based method with a lower limit of quantification of 0.5 ng/mL. […]
# [5] = Safety assessments (adverse events, laboratory, vital signs, ECG); type: in vivo
# Excerpt: Safety evaluations included analysis of AEs, laboratory variables (hematology, clinical chemistry, and urinalysis), vital signs, electrocardiogram, and a physical examination. AEs were coded using the Medical Dictionary for Regulatory Activities Version 24.0. […] Treatment‐emergent AEs (TEAEs) were summarized by frequency, severity, and relatedness to the study drug. TEAE frequency (the number of TEAEs and the number of participants experiencing a TEAE) was tabulated by system organ class and preferred term. In the per‐participant analyses, a participant having the same event more than once was counted only once.
# [6] = tested on: relapsed/refractory pLGG; design: method as in PMID 39808502, PMID 37978284; conditions: cited from earlier work
# [7] = design: method as in PMID 37219686; conditions: cited from earlier work
# [8] = design: method as in PMID 38967715, PMID 39412085; conditions: cited from earlier work
# [9] = 20-280 mg every 2 days and 400-800 mg every week
structure (smiles),measurement,setting,value
"C[C@@H](NC(=O)c1ncnc(N)c1Cl)c1ncc(C(=O)Nc2cc(C(F)(F)F)c(Cl)cn2)s1 [tovorafenib, 6‐amino‐5‐chloro‐N‐[(1R)‐1‐[5‐[[[5chloro‐4‐(trifluoromethyl)‐2‐pyridinyl]amino]carbonyl]‐2‐thiazolyl]ethyl]‐4‐pyrimidinecarboxamide]",Effect on breast cancer resistance protein,[1],inhibits
same,Metabolizing enzymes,[2],primarily metabolized by aldehyde oxidase and cytochrome P450 (CYP) 2C8
same,Effect on CYP1A2 and CYP2B6,[3],induces
same,"Effect on CYP2C8, CYP2C9, CYP2C19, and CYP3A",[3]; in vitro,both inhibits and induces
same,half-life,"[4]; human, plasma, oral, range over regimens, 100 and 300 mg, read-out: Mean t1/2 values from the 3 treatment regimens",62 to 89.5 h
same,AUC0‐last at 300 mg relative to 100 mg,[4]; single doses,~2.5 fold
same,Cmax at 300 mg relative to 100 mg,[4]; single doses,approximately 2.3 fold
same,Severity of all AEs,[5]; 100 mg dose regimens,mild
same,"Myalgia, events",[5]; 300 mg,10 events
same,"Nonserious musculoskeletal AEs, mild",[5]; 300 mg,5 participants
same,"Nonserious musculoskeletal AEs, moderate",[5]; 300 mg,3 participants
same,"Nonserious musculoskeletal AEs, severe",[5]; 300 mg,4 participants
same,Moderate AEs,[5]; 300 mg dose regimens,7
same,Participants with nonserious musculoskeletal AEs,"[5]; 300 mg, Period 1",12 participants
same,"Myalgia, participants reporting","[5]; 300 mg, [83.3%]",10 participants
same,TEAEs reported during Part 1,"[5]; Part 1, sip and spit of PfOS formulations, n = 12",no TEAEs
same,Serious AEs or AEs leading to study drug discontinuation,[5]; Part 2,no serious AEs or AEs leading to study drug discontinuation
same,TEAEs related to tovorafenib,"[5]; Part 2, all regimens",60
same,Total TEAEs,"[5]; Part 2, all regimens",71
same,Participants reporting TEAEs,"[5]; Part 2, all regimens, N = 12",12 participants
same,"Laboratory, vital sign, electrocardiogram, physical examination findings",[5]; either part of the study,no clinically significant abnormal
same,Overall response rate,"[6]; 76 evaluable patients, 420 mg/m^2 once weekly (600 mg maximum), independent radiology review, RAPNO low-grade glioma criteria",51%
same,Median duration of response,"[6]; FIREFLY-1 arm 1, 420 mg/m^2 once weekly",13.8 months
same,Dose proportionality of peak plasma concentration and exposure,[7]; [9],roughly dose‐proportional
same,half-life,[7]; [9],approximately 70 hours
same,Median tmax,[7]; after dosing,3 h
same,Mean t1/2,"[7]; patients, 600 mg, multiple administrations",approximately 70 hours
same,Tovorafenib share of total plasma radioactivity exposure,[8]; single 100-mg oral dose of [14C]-tovorafenib,78.7%
same,Dose recovered in the urine,[8]; single oral radiolabeled dose,27%
same,Dose recovered unchanged in the feces,[8]; single oral radiolabeled dose,8.6%
same,Dose recovered unchanged in the urine,[8]; single oral radiolabeled dose,0.2%
same,Total radiolabeled dose recovered in the feces,[8]; single oral radiolabeled dose,65%

# — PMC12402836, “Taste Profile and Relative Bioavailability of Tovorafenib Powder for Oral Suspension and Food Effect of the Tovorafenib Tablet in Healthy Participants” (Clinical Pharmacology in Drug Development, 2025)
